Paper PMC8835475, “Salviolone from Salvia miltiorrhiza Roots Impairs Cell Cycle Progression, Colony Formation, and Metalloproteinase-2 Activity in A375 Melanoma Cells: Involvement of P21(Cip1/Waf1) Expression and STAT3 Phosphorylation” (International Journal of Molecular Sciences, 2022)

Tests used:
[1] = tested on: normal human epithelial melanocyte (NHEM) cell line; assay: SRB cell viability assay in NHEM cells; assay type: cell-based; conditions: for effect on NHEM viability: 10–20 µM; for reduction of NHEM viability: 40–60 µM
Procedure: Human MeWo (HTB-65) and A375 (CRL-1619) melanoma cell lines as well as the normal human epidermal melanocyte (NHEM) (PCS-200-013) cell line (ATCC, Manassas, VA, USA) were cultured at 37 °C under 5% CO2 in a humidified atmosphere. Roswell Park Memorial Institute 1640 medium (RPMI, Gibco, Ref.21875, Thermo Scientific, Waltham, MA, USA) was used to culture MeWo cells, while Dulbecco’s Modified Eagle Medium (DMEM, Gibco, Ref. 61965, Thermo Scientific, Waltham, MA, USA) was used for A375 and NHEM cell lines. The culture media were supplemented with 10% fetal bovine serum (FBS, Gibco, Thermo Scientific, Waltham, MA, USA) plus 1% Antibiotic Antimycotic Solution (Gibco, Thermo Scientific). The MEK1 inhibitor U0126 (CAY-70970) and the PI3K inhibitor LY294002 (CAY-70920) were provided by Cayman Chemical, Ann Arbor, MI, USA.
Melanoma MeWo and A375 cells or NHEM were seeded in 96-well plates (5.0 × 10^3 cells/well for MeWo cells and 2.9 × 10^3 cells/well for A375 or NHEM). After 24-h culture, the cells were treated with different concentrations of compounds 1–7. After 72-h treatment, the cells were fixed by adding 25 µL/well of 50% (w/v) TCA directly into the culture medium. The plates were incubated at 4 °C for 1 h, washed four times with ddH2O, and dried at RT. Staining was performed by adding 50 µL/well of 0.04% (w/v) sulforhodamine B (SRB) sodium salt solution (Sigma-Aldrich, Milan, Italy). After 1-h incubation at RT, the plates were rinsed with 1% HAc and air-dried. SRB was solubilized in a 10 mM Tris-base solution pH 10.5 and Abs492 measured in the plate reader TECAN NanoQuant Infinite M200 Pro (Tecan Group Ltd., Männedorf, Switzerland). Six replicates for each condition/data point were performed.

pERK1/2 = assay: Immunoblot of pERK1/2 in A375 cells; assay type: cell-based, human; conditions: A375, 20 µM, 72 h; declined in control
Procedure: (§1) A375 cells were seeded in 6 cm Petri dishes (190 300 cell/dish) and treated with different compounds at 10 or 20 μM. After 48- or 72-h treatment, the cells were scraped using warm 1× sample buffer (2% SDS, 10% glycerol, 50 mM Tris-HCl, 1.75% β-mercaptoethanol, and bromophenol blue) and boiled at 99 °C for 10 min. Total protein extracts were kept at −80 °C until use.
(§2) Protein extracts were analyzed with a 7.5 or 10% polyacrylamide SDS-PAGE and transferred to a polyvinylidene difluoride membrane (PVDF, Thermo Fisher Scientific, Waltham, MA, USA). The membranes were blocked at RT for 1 h with TBST buffer (10 mM Tris-HCl pH 7.5, 100 mM NaCl, 0.1% Tween20) containing 4% Milk (Formulat). Then, they were incubated on a shaker, overnight (ON) at 4 °C, with 5% BSA solution containing primary antibodies against p-Tyr705-STAT3 (#9145, 1:1000), pRb (#8516, 1:2000), pERK (#4370, 1:1000), pAkt (#4060, 1:2000), pSer15-P53 (#9286, 1:2000) (Cell Signaling Technology, Danvers, […], USA), Akt (GTX121937, 1:3000), ERK (GTX134452, 1:6000), Cyclin A2 (GTX-103042, 1:3000), p-Thr160Cdk2 (GTX-133862, 1:3000), p21 (GTX-629543, 1:3000) (Genetex, Alton Pkwj Irvine, CA, USA), p53 (Sc-263, 1:1000), STAT3 (Sc-482, 1:1000), and p-Ser727-STAT3 (Sc-136193, 1:1000) (Santa Cruz Biotechnology, Dallas, TX, USA). The membranes were washed three times with TBST buffer for 30 min and then incubated for 1 h with a horseradish-peroxidase-conjugated secondary antibody (anti-rabbit 1:6000, Genetex), (anti-mouse, 1:4000, Cell Signaling Technology, Danvers, […], USA). They were washed another three times for 30 min with TBST buffer. All protein extracts were normalized with a β-actin protein antibody (GTX-124214, 1:10,000; Genetex, Alton Pkwj Irvine, CA, USA). Immuno-detection was carried out with an ECL kit (GE-Healthcare, Little Chalfont, UK), and the chemiluminescence signals were detected with ChemiDoc (Bio-Rad, Hercules, CA, USA).

pAkt = assay: Immunoblot of pAkt in A375 cells; assay type: cell-based, human; conditions: A375, 20 µM, 72 h; declined in control
Procedure: as §1, §2

A375 melanoma cells = assay: Soft agar colony formation assay; assay type: cell-based, human; conditions: A375, 5 and 10 µM, 21-day culture
Procedure: Before seeding, 6-well plates were prepared with soft agar, as follows: the bottom layer was filled with 1% low-gelling temperature agarose and 2X DMEM, supplemented with 20% FBS and 2% Antibiotic Antimycotic Solution (Gibco, BRL Invitrogen Corp., Carlsbad, CA, USA). After 30 min, cells (5000 cell/well) were suspended in 0.6% agarose and 2X DMEM supplemented with 20% FBS and 2% Antibiotic Antimycotic Solution (Gibco, BRL Invitrogen Corp., Carlsbad, CA, USA) and placed over the 0.5% agarose layer. Then, either cryptotanshinone (4) or salviolone (7) at 5–10 μM was added directly into each well and 100 μL of fresh media was added twice a week for 3 weeks. The semi-solid cultures were performed in triplicate and images captured.

Row | Structure (SMILES) | effect on NHEM viability [1] | reduction of NHEM viability [1] [%] | pERK1/2 expression level (pERK1/2) | pAkt expression level (pAkt) | number and dimension of colonies formed on soft agar (A375 melanoma cells)
1 | C[C@H]1COC2=C1C(=O)C(=O)c1c2ccc2c1CCCC2(C)C [Compound 4, cryptotanshinone] | did not affect | 20 | remained high | remained high | decreased
2 | Cc1cc2ccc3c(c2cc(O)c1=O)CCCC3(C)C [Compound 7, salviolone] | did not affect | 20 | remained high | remained high | decreased
